Measurements: ChEMBL document CHEMBL4376804, “Review of Transient Receptor Potential Canonical (TRPC5) Channel Modulators and Diseases” (J Med Chem, 2019)

Assays:
Type in all cases: cell-based
[1] = Selectivity ratio of IC50 for YFP-tagged human TRPC6 expressed in thapsigargin treated HEK293 cells to IC50 for mouse TRPC5 expressed in thapsigargin treated HEK293/TREx cells
[2] = target: T1, Short transient receptor potential channel 5 (Mus musculus, UniProt Q9QX29); test: Inhibition of mouse TRPC5 expressed in thapsigargin treated HEK293/TREx cells assessed as reduction in intracellular calcium level in presence of GPCR agonist by fluorescence method
T1 sequence (Q9QX29 whole entry): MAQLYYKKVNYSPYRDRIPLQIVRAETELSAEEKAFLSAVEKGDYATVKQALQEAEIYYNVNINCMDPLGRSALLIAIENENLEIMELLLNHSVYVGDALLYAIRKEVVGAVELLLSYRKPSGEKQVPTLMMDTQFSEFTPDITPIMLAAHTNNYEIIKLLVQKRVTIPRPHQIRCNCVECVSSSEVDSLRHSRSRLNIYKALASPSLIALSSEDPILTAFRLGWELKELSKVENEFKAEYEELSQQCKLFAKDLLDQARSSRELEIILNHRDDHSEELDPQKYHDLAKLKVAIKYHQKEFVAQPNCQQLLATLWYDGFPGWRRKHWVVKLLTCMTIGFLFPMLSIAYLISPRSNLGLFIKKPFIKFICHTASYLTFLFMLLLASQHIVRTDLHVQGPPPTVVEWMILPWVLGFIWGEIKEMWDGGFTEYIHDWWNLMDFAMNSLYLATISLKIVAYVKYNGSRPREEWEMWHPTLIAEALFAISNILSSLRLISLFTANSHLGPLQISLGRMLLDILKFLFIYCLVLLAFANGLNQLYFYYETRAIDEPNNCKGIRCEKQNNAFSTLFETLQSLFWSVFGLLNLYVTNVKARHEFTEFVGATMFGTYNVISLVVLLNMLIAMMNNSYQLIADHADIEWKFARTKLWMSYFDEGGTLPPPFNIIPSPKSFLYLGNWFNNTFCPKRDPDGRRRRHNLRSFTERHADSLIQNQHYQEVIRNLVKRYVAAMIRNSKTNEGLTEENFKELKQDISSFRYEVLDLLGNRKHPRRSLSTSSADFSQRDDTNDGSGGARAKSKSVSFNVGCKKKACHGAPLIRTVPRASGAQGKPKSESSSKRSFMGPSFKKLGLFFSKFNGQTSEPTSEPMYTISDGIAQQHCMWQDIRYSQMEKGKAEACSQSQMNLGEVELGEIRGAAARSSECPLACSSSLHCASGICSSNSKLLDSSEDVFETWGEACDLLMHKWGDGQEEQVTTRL

[3] = target: Transient receptor potential cation channel subfamily V member 1 (Rattus norvegicus, UniProt O35433); test: Inhibition of CFP-tagged rat TRPV1 expressed in HEK293 cells assessed as reduction in calcium level by fluo-4 dye based fluorescence assay
Transient receptor potential cation channel subfamily V member 1, sequence (O35433 whole entry): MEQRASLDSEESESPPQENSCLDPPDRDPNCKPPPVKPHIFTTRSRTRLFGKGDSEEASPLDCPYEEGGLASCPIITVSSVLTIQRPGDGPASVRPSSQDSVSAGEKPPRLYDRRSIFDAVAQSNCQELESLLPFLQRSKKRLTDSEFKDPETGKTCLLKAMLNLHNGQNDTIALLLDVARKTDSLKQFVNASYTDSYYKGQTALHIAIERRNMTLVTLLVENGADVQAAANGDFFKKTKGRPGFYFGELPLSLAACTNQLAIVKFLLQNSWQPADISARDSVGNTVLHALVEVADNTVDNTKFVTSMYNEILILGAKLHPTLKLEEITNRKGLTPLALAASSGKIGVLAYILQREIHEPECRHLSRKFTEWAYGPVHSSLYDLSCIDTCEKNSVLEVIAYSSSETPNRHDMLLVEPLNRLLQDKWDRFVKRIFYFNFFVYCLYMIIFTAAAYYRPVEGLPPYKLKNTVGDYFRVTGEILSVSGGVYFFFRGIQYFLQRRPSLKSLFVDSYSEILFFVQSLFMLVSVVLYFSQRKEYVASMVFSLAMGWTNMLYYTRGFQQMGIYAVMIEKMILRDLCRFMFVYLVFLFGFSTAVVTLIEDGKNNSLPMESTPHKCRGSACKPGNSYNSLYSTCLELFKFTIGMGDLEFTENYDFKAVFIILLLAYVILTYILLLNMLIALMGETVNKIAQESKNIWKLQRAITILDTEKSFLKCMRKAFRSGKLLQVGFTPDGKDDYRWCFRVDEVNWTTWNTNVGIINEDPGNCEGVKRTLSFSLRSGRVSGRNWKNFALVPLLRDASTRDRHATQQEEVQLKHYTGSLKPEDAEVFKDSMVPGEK

IC50 [2]: 1100 nM | IC50 [3]: > 20000 nM
SMILES: Clc1ccc(Cn2c(CN3CCCC3)nc3ccccc32)cc1 [CLEMIZOLE]
Ratio IC50 [1]: 10
